Consider 1 compound from US10246422B2, “Heterocyclic compounds and use thereof in medicine and in cosmetics” (GALDERMA RESEARCH & DEVELOPMENT, priority 2014, dated 2019).

The nature of the data set: Metabolic stability in the presence of human hepatic microsomes. It counts as in vitro ADME. The following applies: compound 1 μM (DMSO 0.1%), microsomal protein 0.5 mg/mL, LC/MS/MS. As to the method: This is illustrated more particularly by the test of metabolic stability in the presence of human hepatic microsomes presented below.
Human hepatic microsomes (Becton Dickinson) are incubated at a protein concentration of 0.5 mg/mL in the reaction mixture.
The reaction mixture of the microsomes consists of phosphate buffer pH: 7.4 at 100 mM, MgCl2 at 100 mM (50/50), a system for generating […] consisting of a mixture of nicotinamide adenine […] (NADP), glucose-6-phosphate (G6P) at 1 mg/mL and glucose-6-phosphate dehydrogenase (G6PDH) at 4 U/mL. The compounds are tested at 1 μM (DMSO 0.1%).
The samples are taken from the incubation medium after adding the microsomes, at time 15 minutes. The metabolic reaction is stopped by adding methanol (1 volume incubation medium/3 volumes of methanol). The percentage of the parent product remaining after 15 minutes is measured by LC/MS/MS analysis.

`O=C(N[C@@H]1CC[C@@H](c2cccc(F)c2F)CN(CC(F)(F)F)C1=O)N1CCC(n2c(=O)[nH]c3ncccc32)CC1` [Telcagepant, telcagepant, reference compound]: the “% of product remaining at 15 min (human hepatic microsomes)” value turned out to be 100%.
